This note sets out measurements from PubChem BioAssay AID1053147 (Broad Institute, 2014).

This experiment deals with HepG2 BODIPY-LDL uptake, imaging, fold induction. The experiment can be described thus: fold increase of hepatoma cell fluorescent LDL uptake – imaging, BODIPY-LDL, cherry-pick, set 2, dose response (AID 1053147). To be noted: stronger effect = higher value.

Turning to `CN1C(=O)c2cc(NC(=O)c3ccc(C(F)(F)F)cc3)ccc2OC[C@@H]2O[C@H](CC(=O)NC3Cc4ccccc4C3)CC[C@@H]21`, the fold induction x10 is 10.

For `CN1C(=O)c2cc(NC(=O)c3ccc(C(F)(F)F)cc3)ccc2OC[C@@H]2O[C@@H](CC(=O)NC3Cc4ccccc4C3)CC[C@@H]21`, the fold induction x10 is 25.
